Entries after “also recorded” stand apart in the source; their conditions may differ.
Legend:
[1] = test system: 786-0 (Renal cancer); experiment: NCI-60 single-dose anticancer screen; type: cell-based, human; conditions: 10 µM single dose
Procedure, shortened: (§1)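 Single-dose screen, 10 µM, NCI-60 human tumour cell panel; in vitro cytotoxicity per NCI method.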

[2] = test system: DU-145 (Prostate cancer); experiment: NCI-60 single-dose anticancer screen; type: cell-based, human; conditions: 10 µM single dose
Procedure, shortened: as §1

[3] = test system: HCT-116 (Colon cancer); experiment: NCI-60 single-dose anticancer screen; type: cell-based, human; conditions: for cell growth promotion: 10 µM single dose; for inhibition at 10 µM: Homo sapiens, read-out: cell growth inhibition
Procedure, shortened: as §1

[4] = test system: HOP-62 (Non-small cell lung cancer); experiment: NCI-60 single-dose anticancer screen; type: cell-based, human; conditions: 10 µM single dose
Procedure, shortened: as §1

[5] = test system: LOX IMVI (Melanoma); experiment: NCI-60 single-dose anticancer screen; type: cell-based, human; conditions: 10 µM single dose
Procedure, shortened: as §1

[6] = test system: MCF7 (Breast cancer); experiment: NCI-60 single-dose anticancer screen; type: cell-based, human; conditions: 10 µM single dose; for inhibition at 10 µM: Homo sapiens, read-out: cell growth inhibition
Procedure, shortened: as §1

[7] = test system: MDA-MB-231/ATCC (Breast cancer); experiment: NCI-60 single-dose anticancer screen; type: cell-based, human; conditions: 10 µM single dose
Procedure, shortened: as §1

[8] = test system: MOLT-4 (Leukaemia); experiment: NCI-60 single-dose anticancer screen; type: cell-based, human; conditions: 10 µM single dose
Procedure, shortened: as §1

[9] = test system: NCI-H226 (Non-small cell lung cancer); experiment: NCI-60 single-dose anticancer screen; type: cell-based, human; conditions: 10 µM single dose
Procedure, shortened: as §1

[10] = test system: PC-3 (Prostate cancer); experiment: NCI-60 single-dose anticancer screen; type: cell-based, human; conditions: 10 µM single dose
Procedure, shortened: as §1

[11] = test system: RXF 393 (Renal cancer); experiment: NCI-60 single-dose anticancer screen; type: cell-based, human; conditions: 10 µM single dose
Procedure, shortened: as §1

[12] = test system: SK-OV-3 (Ovarian cancer); experiment: NCI-60 single-dose anticancer screen; type: cell-based, human; conditions: 10 µM single dose
Procedure, shortened: as §1

[13] = test system: T-47D (Breast cancer); experiment: NCI-60 single-dose anticancer screen; type: cell-based, human; conditions: 10 µM single dose
Procedure, shortened: as §1

[14] = target: T1, human VEGFR-2 (Homo sapiens, UniProt P35968); experiment: In vitro VEGFR-2 inhibitory assay (colorimetric human VEGFR-2 ELISA, HTScan VEGF Receptor 2 Kinase Assay Kit); type: biochemical; conditions: VEGFR-2 inhibition
T1 construct: It includes active VEGFR-2 kinase; purchased HTScan VEGF Receptor 2 Kinase Assay Kit
Procedure: VEGFR is considered as an important target for the development of potential anti-cancer candidates.
On a 96-well plate, a particular VEGFR-2 antibody was seeded and 100 µL of the normal solution or compound tested was applied, incubated at room temperature for 2.5 h and washed.
Then, 100 µL of the prepared biotin antibody was added, incubated for an additional 1 h at room temperature and washed. Following, 100 µL of streptavidin solution was added at room temperature, incubated for 45 min and then, 100 µL of TMB substrate solution was applied and incubated at room temperature for 30 min. Finally, 50 µL stop solution was added and the absorption was measured at 450 nm instantly. The standard curve, the X-axis concentrations, and the Y-axis absorbance were drawn.

[15] = test system: HCT-116 cells; experiment: Cell cycle analysis by DNA flow cytometry; type: cell-based, human; conditions: 10 µM; for %Pre-G1 / %G2/M / %S / %G0/G1: 24 h; for %Pre-G1: control 1.97; for %G2/M: control 15.44; for %S: control 30.18; for %G0/G1: control 54.38
Procedure: Flow cytometric analysis is considered a valuable method for determining and analysing the cell cycle parameters. […] The effect on the cell cycle distribution was assessed by a DNA flow cytometry analysis and the cell cycle parameters were compared to untreated control cells in HCT-116 cells which had been incubated with 10 µM of Vd and Ve compounds and the results are shown in Table 3 and Figure 3.
HCT-116 cells were seeded at concentrations of 1 × 10^5 cells per well in a six-well plate, then incubated for 24 h. The cells were treated for 24 h with vehicles (0.1% DMSO) or 10 µM of Vd or Ve compounds. Using ice-cold, 70% ethanol at 4 °C, cells were harvested and fixed for 12 h after that. Ethanol removal and cold PBS washing of the cells were done. Then incubated in 0.5 mL of PBS containing 1 mg/mL Ranse for 30 min at 37 °C. In the dark, the cells were stained with PI for 30 min. Flow cytometer was then used to detect contents of DNA[62].

[16] = test system: HCT-116 cells; experiment: Annexin V-FITC/PI apoptosis assay; conditions: for Apoptosis Early: control 0.51; for Necrosis: control 1.21; for Apoptosis Total: control 1.97

T1 sequence (P35968 20-1356): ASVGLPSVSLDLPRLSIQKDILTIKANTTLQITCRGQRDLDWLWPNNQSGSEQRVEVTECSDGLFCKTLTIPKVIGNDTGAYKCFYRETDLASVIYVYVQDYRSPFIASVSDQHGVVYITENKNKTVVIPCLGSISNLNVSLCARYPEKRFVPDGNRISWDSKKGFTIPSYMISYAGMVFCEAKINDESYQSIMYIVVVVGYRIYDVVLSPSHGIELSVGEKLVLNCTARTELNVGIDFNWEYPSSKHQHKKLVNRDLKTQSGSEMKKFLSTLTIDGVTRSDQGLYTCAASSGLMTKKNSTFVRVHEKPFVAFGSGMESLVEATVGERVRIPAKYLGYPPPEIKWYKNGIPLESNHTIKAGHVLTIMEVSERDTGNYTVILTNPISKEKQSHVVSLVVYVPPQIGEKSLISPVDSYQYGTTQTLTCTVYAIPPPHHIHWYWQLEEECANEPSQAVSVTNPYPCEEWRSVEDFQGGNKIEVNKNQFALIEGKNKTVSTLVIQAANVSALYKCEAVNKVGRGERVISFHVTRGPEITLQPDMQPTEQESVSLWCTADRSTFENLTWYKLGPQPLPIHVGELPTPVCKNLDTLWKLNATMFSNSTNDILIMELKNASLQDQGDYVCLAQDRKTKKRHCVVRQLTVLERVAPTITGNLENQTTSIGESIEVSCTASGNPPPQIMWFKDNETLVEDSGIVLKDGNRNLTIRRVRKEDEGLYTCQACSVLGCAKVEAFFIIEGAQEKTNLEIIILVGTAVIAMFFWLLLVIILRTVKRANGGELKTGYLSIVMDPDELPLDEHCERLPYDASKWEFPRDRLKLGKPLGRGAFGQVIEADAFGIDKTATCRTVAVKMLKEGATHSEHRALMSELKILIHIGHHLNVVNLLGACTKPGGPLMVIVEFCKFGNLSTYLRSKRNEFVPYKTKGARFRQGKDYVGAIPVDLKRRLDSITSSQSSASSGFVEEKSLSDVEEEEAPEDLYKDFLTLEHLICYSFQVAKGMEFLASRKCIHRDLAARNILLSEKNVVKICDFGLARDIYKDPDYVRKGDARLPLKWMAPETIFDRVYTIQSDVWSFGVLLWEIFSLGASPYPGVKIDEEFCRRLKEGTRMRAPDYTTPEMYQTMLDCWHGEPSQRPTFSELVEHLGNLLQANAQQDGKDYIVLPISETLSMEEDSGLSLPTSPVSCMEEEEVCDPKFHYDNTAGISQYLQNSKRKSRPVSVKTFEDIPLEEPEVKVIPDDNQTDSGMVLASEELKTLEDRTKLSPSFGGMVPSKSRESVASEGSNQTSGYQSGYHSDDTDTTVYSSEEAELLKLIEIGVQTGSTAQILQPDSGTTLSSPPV

## N#Cc1ccccc1C1CC(c2ccc(N3CCNCC3)cc2)=NN1 (centres unmarked) [VIa, 2-(3-(4-(Piperazin-1-yl)phenyl)-4,5-dihydro-1H-pyrazol-5-yl)benzonitrile]
[1]
  cell growth promotion: 106.73%
[2]
  cell growth promotion: 104.00%
[3]
  cell growth promotion: 85.83%
  inhibition at 10 µM: 14.2%
[4]
  cell growth promotion: 86.44%
[5]
  cell growth promotion: 99.03%
[6]
  cell growth promotion: 93.05%
[7]
  cell growth promotion: 95.96%
[8]
  cell growth promotion: 96.02%
[9]
  cell growth promotion: 93.10%
[10]
  cell growth promotion: 83.35%
[11]
  cell growth promotion: 108.30%
[12]
  cell growth promotion: 96.47%
[13]
  cell growth promotion: 89.99%
[14]
  IC50: 1480 nM
other
  melting point: 165 °C

## COc1cc(C2CC(c3ccc(N4CCNCC4)cc3)=NN2)ccc1F (centres unmarked) [VIb, 1-(4-(5-(4-Fluoro-3-methoxyphenyl)-4,5-dihydro-1H-pyrazol-3-yl)phenyl) piperazine]
[1]
  cell growth promotion: 94.50%
[2]
  cell growth promotion: 103.62%
[3]
  cell growth promotion: 61.10%
  inhibition at 10 µM: 38.9%
[4]
  cell growth promotion: 86.01%
[5]
  cell growth promotion: 79.56%
[6]
  cell growth promotion: 68.65%
[7]
  cell growth promotion: 81.98%
[8]
  cell growth promotion: 72.10%
[9]
  cell growth promotion: 89.08%
[10]
  cell growth promotion: 64.23%
[11]
  cell growth promotion: 95.32%
[12]
  cell growth promotion: 83.58%
[13]
  cell growth promotion: 73.62%
[14]
  IC50: 1060 nM
other
  melting point: 195 °C

## Fc1cnccc1C1CC(c2ccc(N3CCNCC3)cc2)=NN1 (centres unmarked) [VIc, 1-(4-(5-(3-Fluoropyridin-4-yl)-4,5-dihydro-1H-pyrazol-3-yl)phenyl) piperazine]
[1]
  cell growth promotion: 111.09%
[2]
  cell growth promotion: 107.16%
[3]
  cell growth promotion: 73.82%
  inhibition at 10 µM: 26.2%
[4]
  cell growth promotion: 83.16%
[5]
  cell growth promotion: 94.31%
[6]
  cell growth promotion: 73.03%
[7]
  cell growth promotion: 84.58%
[8]
  cell growth promotion: 74.15%
[9]
  cell growth promotion: 82.88%
[10]
  cell growth promotion: 70.34%
[11]
  cell growth promotion: 104.89%
[12]
  cell growth promotion: 85.00%
[13]
  cell growth promotion: 82.20%
[14]
  IC50: 1310 nM
other
  melting point: 135 °C

## O=C(C=Cc1cccc(F)c1)c1ccc(N2CCNCC2)cc1 [Vd, 3-(3-Fluorophenyl)-1-(4-(piperazin-1-yl)phenyl)prop-2-en-1-one]
[1]
  cell growth promotion: 85.24%
[2]
  cell growth promotion: 77.70%
[3]
  cell growth promotion: 42.08%
  inhibition at 10 µM: 57.9%
[4]
  cell growth promotion: 80.17%
[5]
  cell growth promotion: 71.13%
[6]
  cell growth promotion: 51.72%
  inhibition at 10 µM: 48.3%
[7]
  cell growth promotion: 73.60%
[8]
  cell growth promotion: 68.62%
[9]
  cell growth promotion: 87.11%
[10]
  cell growth promotion: 66.01%
[11]
  cell growth promotion: 75.94%
[12]
  cell growth promotion: 79.98%
[13]
  cell growth promotion: 87.54%
[14]
  IC50: 800 nM
[15]
  Comment (cell cycle arrest phase): arrest HCT-116 cell cycle in the G2/M phase; also recorded: induced cell arrest at G2/M phase
  %Pre-G1: 16.54%
  %G2/M: 50.44%
  %S: 27.78%
  %G0/G1: 21.78%
[16]
  total increase in apoptosis compared to the control: approximately 18.7 fold
[16]; 10 µM, 24 h, control 0.25
  Apoptosis Late: 10.32%
[16]; 10 µM, 24 h
  Apoptosis Early: 3.92%
  Necrosis: 2.3%
  Apoptosis Total: 16.54%

## COc1cc(C=CC(=O)c2ccc(N3CCNCC3)cc2)ccc1F [Ve, 3-(4-Fluoro-3-methoxyphenyl)-1-(4-(piperazin-1-yl)phenyl) prop-2-en-1-one]
[1]
  cell growth promotion: 87.22%
[2]
  cell growth promotion: 105.61%
[3]
  cell growth promotion: 27.43%
  inhibition at 10 µM: 72.6%
[4]
  cell growth promotion: 101.42%
[5]
  cell growth promotion: 49.01%
[6]
  cell growth promotion: 34.68%
  inhibition at 10 µM: 65.3%
[7]
  cell growth promotion: 94.50%
[8]
  cell growth promotion: 80.75%
[9]
  cell growth promotion: 86.54%
[10]
  cell growth promotion: 51.40%
[11]
  cell growth promotion: 101.92%
[12]
  cell growth promotion: 87.98%
[13]
  cell growth promotion: 74.40%
[14]
  IC50: 570 nM
[15]
  Comment (cell cycle arrest phase): arrest HCT-116 cell cycle in the G2/M phase; also recorded: induced cell arrest at G2/M phase
  %Pre-G1: 18.22%
  %G2/M: 46.85%
  %S: 28.58%
  %G0/G1: 24.57%
[16]
  total increase in apoptosis compared to the control: ~21.2 fold
[16]; 10 µM, 24 h
  Apoptosis Early: 4.76%
  Necrosis: 2.11%
  Apoptosis Total: 18.22%

## O=C(C=Cc1ccncc1F)c1ccc(N2CCNCC2)cc1 [Vf, 3-(3-Fluoropyridin-4-yl)-1-(4-(piperazin-1-yl)phenyl)prop-2-en-1-one]
[1]
  cell growth promotion: 103.38%
[2]
  cell growth promotion: 108.14%
[3]
  cell growth promotion: 73.87%
  inhibition at 10 µM: 26.1%
[4]
  cell growth promotion: 102.01%
[5]
  cell growth promotion: 103.22%
[6]
  cell growth promotion: 99.38%
  inhibition at 10 µM: 0.62%
[7]
  cell growth promotion: 98.76%
[8]
  cell growth promotion: 91.63%
[9]
  cell growth promotion: 99.71%
[10]
  cell growth promotion: 73.56%
[11]
  cell growth promotion: 97.78%
[12]
  cell growth promotion: 96.68%
[13]
  cell growth promotion: 118.12%
[14]
  IC50: 1330 nM
other
  melting point: 225 °C
